The values that follow come from patent US10144729B2, “Isoxazole analogs as FXR agonists and methods of use thereof” (Enanta Pharmaceuticals, Inc., priority 2016, dated 2018).

Usually EC50 stands for the concentration that produces a half-maximal response. High values mean weaker potency, low ones greater potency.

For the assay, the target named is human FXR (NR1H4) (Homo sapiens (Human), UniProt Q96RI1). In words: Human FXR (NR1H4) Assay (Gal4 promoter driven luciferase reporter, CHO cells). Type of assay: cell-based. The conditions noted are these: for Efficacy (%): FXR reporter assay in CHO cells, efficacy normalized to CDCA set as 100%. An excerpt: Human FXR (NR1H4) Assay Determination of a ligand mediated Gal4 promoter driven transactivation to quantify ligand binding mediated activation of FXR. […] The principle application of this reporter assay system is to quantify functional activity of human FXR. The assay utilizes non-human mammalian cells, CHO (Chinese hamster ovary) cells engineered to express human NR1H4 protein (referred to as FXR). Reporter cells also incorporate the cDNA encoding beetle luciferase which catalyzes the substrates and yields photon emission. Luminescence intensity of the reaction is quantified using a plate-reading luminometer, Envision. Reporter Cells include the luciferase reporter gene functionally linked to an FXR responsive promoter. Thus, quantifying changes in luciferase expression in the treated reporter cells provides a sensitive surrogate measure of the changes in FXR activity. […] The assay is according to the manufacturer's instructions. […] Retrieve Reporter Cells from −80° C. storage. Perform a rapid thaw of the frozen cells by transferring a 10 ml volume of 37° C. cell recovery medium into the tube of frozen cells. Recap the tube of Reporter Cells and immediately place it in a 37° C. water bath for 5-10 minutes. Retrieve the tube of Reporter Cell Suspension from the water bath. Sanitize the outside surface of the tube with a 70% alcohol swab, and then transfer it into the cell culture hood. Dispense 90 μl of cell suspension into each well of the 96-well Assay Plate. Transfer the plate into 37° C. incubator, allowing the cells adherent to the bottom of the well. Dilute compounds in Dilution Plate (DP), and administrate to cells at Assay Plate (AP). DMSO content of the samples was kept at 0.2%. Cells were incubated for additional 22 hours before luciferase activities were measured. Thirty minutes before intending to quantify FXR activity, remove Detection Substrate and Detection Buffer from the refrigerator and place them in a low-light area so that they may equilibrate to room temperature. Remove the plate's lid and discard all media contents by ejecting it into an appropriate waste container. Gently tap the inverted plate onto a clean absorbent paper towel to remove residual droplets. Cells will remain tightly adhered to well bottoms. Add 100 μl of luciferase detection reagent to each well of the assay plate. Allow the assay plate to rest at room temperature for at least 5 minutes following the addition of LDR. Set the instrument (Envision) to perform a single 5 second “plate shake” prior to reading the first assay well. Read time may be 0.5 second (500 mSec) per well.
Sequence of human FXR (NR1H4) (Q96RI1 whole entry, the tested form may be a part): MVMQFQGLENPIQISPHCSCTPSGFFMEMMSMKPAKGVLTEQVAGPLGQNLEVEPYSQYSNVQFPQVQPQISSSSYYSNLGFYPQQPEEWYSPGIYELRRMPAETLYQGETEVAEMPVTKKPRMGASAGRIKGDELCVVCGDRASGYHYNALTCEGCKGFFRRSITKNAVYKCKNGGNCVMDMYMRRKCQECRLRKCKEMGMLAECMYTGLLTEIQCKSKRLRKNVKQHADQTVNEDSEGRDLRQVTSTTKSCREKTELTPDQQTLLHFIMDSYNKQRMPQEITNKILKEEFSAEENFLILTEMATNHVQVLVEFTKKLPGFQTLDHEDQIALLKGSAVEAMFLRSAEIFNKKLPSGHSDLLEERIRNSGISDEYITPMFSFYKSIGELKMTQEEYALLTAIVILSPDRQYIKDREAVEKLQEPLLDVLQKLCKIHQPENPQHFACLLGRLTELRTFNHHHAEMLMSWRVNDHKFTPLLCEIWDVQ

As for `CC(C)(C)c1ccc(S(=O)(=O)NC(=O)c2ccc([C@@H]3C[C@H]3c3ccc(OCc4c(-c5c(Cl)cccc5Cl)noc4C4CC4)cc3Cl)cc2)cc1` [Example 2a], the EC50 is 1000 to 10000 nM and the “Efficacy (%)” value is given as 115%.
As to `O=C(NS(=O)(=O)C1CC1)c1ccc([C@@H]2C[C@H]2c2ccc(OCc3c(-c4c(Cl)cccc4Cl)noc3C3CC3)cc2Cl)cc1` [Example 2c], the EC50 is 100 to 1000 nM and the “Efficacy (%)” value is given as 209%.
For `CN(C)S(=O)(=O)NC(=O)Nc1ccc([C@@H]2C[C@H]2c2ccc(OCc3c(-c4c(Cl)cccc4Cl)noc3C3CC3)cc2Cl)cc1` [Example 1b], in that order: 1000 to 10000 nM and 194%.
As for `CC(C)(C)c1ccc(S(=O)(=O)NC(=O)Nc2ccc([C@@H]3C[C@H]3c3ccc(OCc4c(-c5c(Cl)cccc5Cl)noc4C4CC4)cc3Cl)cc2)cc1` [Example 2d], the EC50 lay in the range of 100 to 1000 nM and the “Efficacy (%)” value turned out to be 236%.
For `CN(C)S(=O)(=O)NC(=O)c1ccc([C@@H]2C[C@H]2c2ccc(OCc3c(-c4c(Cl)cccc4Cl)noc3C3CC3)cc2Cl)cc1` [Example 1a], in that order: 100 to 1000 nM and 271%.
